This note sets out measurements from patent US20190142738A1, “TRANSDERMAL FORMULATIONS FOR DELIVERY OF CELECOXIB AND ITS USE IN THE TREATMENT OF CELECOXIB-RESPONSIVE DISEASES AND CONDITIONS” (DELIVRA INC., priority 2016, published 2019).

Each structure is given as a SMILES string. Like-named read-outs stand apart in the source and are kept apart here. Where only a bound is given, the exact number is not on record here.

Common to all, as to format: in vivo
Series [1] has as its system sodium urate induced synovitis model in Beagle dogs. In words: Caliper measurement of patella/patellar tendon (knee cap) width, percent baseline measure of inflammation, sodium urate induced synovitis model. As to the method:
Study Design: The study was a randomized, blinded, preclinical study using a controlled, parallel, matched-group design. Thirty-two subjects meeting the inclusion criteria were enrolled in the trial and allocated to 4 balanced groups; therefore one group received 2 treatments separated by a minimum of 14 days. Following induction of synovitis by sodium urate injections, effectiveness of transdermal formulations were evaluated using a pain questionnaire assessment and joint measurements at various time points. [table] On days 0, 2, 7 and 22, subjects who were schedules for synovitis induction were treated according to their assigned treatment condition. Test article administration occurred 30 minutes following synovitis induction, i.e. sodium urate injection. Transdermal treatment doses were measured in milligrams using an analytical scale and were then applied directly to the induce stifle. Transdermal treatments were rubbed into the dog's skin for a minimum of 1 minute. […] If IV administration of the propofol was not possible due to inaccessibility of the vein, the subjects were masked down using the isoflurane-oxygen mixture and the event was recorded on the anesthesia record. […] Each treatment group had the same number of dogs induced in the left […]) Caliper measurements: Within thirty minutes of synovitis induction and 4.5, 8.5, 24.5 and 30.5 hours following induction (±15 minutes), the width of the patella and the patellar tendon were measured in millimeters using […] 150 mm plastic gauge calipers which measured in increments of 1 mm. […] The cumulative pain scored and stifle measurements were analyzed using a repeated-measures analysis of variance (ANOVA) with the treatment group (7 factors( ) as between-subject measure and time-point (5 factors for pain and 4 factors for the inflammation measure) as a within-subject measure. Post-hoc Fisher's test was used to examine differences as appropriate. The Statistica 11 (Statsoft, Tulsa, Okla.) statistical software package was used with significance set to […].

For series [2] the test system is unchanged. In words: Pain questionnaire assessment (cumulative pain score), sodium urate induced synovitis model. Here is the method:
Study Design: The study was a randomized, blinded, preclinical study using a controlled, parallel, matched-group design. Thirty-two subjects meeting the inclusion criteria were enrolled in the trial and allocated to 4 balanced groups; therefore one group received 2 treatments separated by a minimum of 14 days. Following induction of synovitis by sodium urate injections, effectiveness of transdermal formulations were evaluated using a pain questionnaire assessment and joint measurements at various time points. [table] On days 0, 2, 7 and 22, subjects who were schedules for synovitis induction were treated according to their assigned treatment condition. Test article administration occurred 30 minutes following synovitis induction, i.e. sodium urate injection. Transdermal treatment doses were measured in milligrams using an analytical scale and were then applied directly to the induce stifle. […] If IV administration of the propofol was not possible due to inaccessibility of the vein, the subjects were masked down using the isoflurane-oxygen mixture and the event was recorded on the anesthesia record. […] Specifically, the ability for each dog to walk, trot, gallop, rear, jump over a low obstacle, climb and descend stairs, jump down from a perch and general activity is evaluated in parallel to subjective evaluation of pain observed during each behavior. […]

The nature of series [3]: Oral and transdermal celecoxib concentrations in canine sera and synovial fluid. The following applies: dogs; for concentration at 7 days / concentration at 60 min: dog. The text has this:
A Latin Square design was used employing six aged dogs with radiographic evidence of bilateral shoulder osteoarthritis. The treatment cycle consisted of six days twice daily followed by a period of seven days devoid of treatment. Blood and synovial fluid samples (from both stifles and shoulders) were collected on the last (sixth) day of drug application and on the last (seventh) day of the washout period.
Test article: 3% celecoxib in exemplary transdermal base formulation 4; ˜0.5 g gel per shoulder (2) and stifle joint (2) twice daily (i.e. 60 mg celecoxib total twice daily).
Control article: Exemplary transdermal base formulation 5; ˜1 g gel per shoulder joint twice daily.
Positive control: 30 mg celecoxib in capsule PO twice daily.
Serum and Synovial Fluid Collection:
Whole blood and synovial fluid samples were collected from the dogs 60 mins post treatment on the […], and additional samples were collected after a 7 day washout. Baseline synovial fluid was collected from untreated canine subjects. Synovial fluid was collected under sedation (medetomidine, 0.01 mg/kg) and butorphenol (0.1 mg/kg, IV). The fluid was collected by arthrocentesis into the joint following surgical preparation of the area. Synovial fluid was collected from the stifle or shoulder joints.
Analytical Method Development and Quantification:
The method for quantification of celecoxib in serum, plasma and synovial fluid was completed by the National Research Council of Canada (NRC). The results were categorized and summarized for average and deviations for each treatment group and time period.
The objective of this study was to determine if the transdermal formulations of the application were capable of delivering celecoxib either into the systemic circulation and joint synovial fluid and compare transdermal versus oral routes of administration. A canine model was used over two time periods. The first time period consisting of a twice daily drug administration regimen for six days to assess concentrations predictive of chronic use. The second time period followed immediately after, wherein all animals were withdrawn of drug administration and tested after seven days to determine if celecoxib was completely metabolized.

The mark [4] stands for this setting: Oral, 30 mg capsule PO twice daily (60 mg/day), Chronic administration (6 days).
[5] abbreviates: Transdermal (formulation 4), Washout (7 days).
The mark [6] stands for this setting: Transdermal, 3% celecoxib in formulation 4, 120 mg/day, Chronic administration (6 days).

Turning to `Cc1ccc(-c2cc(C(F)(F)F)nn2-c2ccc(S(N)(=O)=O)cc2)cc1` [celecoxib], in series [1] (8 hours), the “inflammation compared to Voltaren” value was “significantly reduced inflammation”. The “percent baseline measure of inflammation (knee cap measurement) in comparison to no treatment” value in series [1] (24 hours) is recorded as “significantly reduced”. For the same compound, the “effects on inflammation compared to negative control” value in series [1] (summary statement, no time point stated) is on record as “no effects”. The “cumulative pain score in comparison to no treatment” value in series [2] (4 hours after treatment) and in series [2] (8 hours after treatment) was “significantly reduced” throughout. Besides, the concentration at 7 days in series [3] (serum, 30 mg, Oral, Washout (7 days), read-out: Serum drug concentration of celecoxib) was determined as 0 ng/mL; in series [3] (serum, topical, 60 mg, Transdermal (formulation 4), Washout (7 days), read-out: Serum drug concentration of celecoxib) it was 4 ng/mL; in series [3] (synovial fluid, 30 mg, Oral, Washout (7 days), read-out: Synovial fluid drug concentration of celecoxib), 1 ng/mL; in series [3] (synovial fluid, topical, 60 mg, Transdermal (formulation 4), Washout (7 days), read-out: Synovial fluid drug concentration of celecoxib) it was 17 ng/mL. In addition, the concentration at 60 min in series [3] (serum, topical, 60 mg, Transdermal, 3% celecoxib in formulation 4, 120 mg/day, Chronic administration (6 days), read-out: Serum drug concentration of celecoxib) came to 221 ng/mL; in series [3] (serum, Oral, 30 mg capsule PO twice daily (60 mg/day), Chronic administration (6 days), read-out: Serum drug concentration of celecoxib), 312 ng/mL; in series [3] (synovial fluid, topical, 60 mg, Transdermal, 3% celecoxib in formulation 4, 120 mg/day, Chronic administration (6 days), read-out: Synovial fluid drug concentration of celecoxib) it was 203 ng/mL; in series [3] (synovial fluid, Oral, 30 mg capsule PO twice daily (60 mg/day), Chronic administration (6 days), read-out: Synovial fluid drug concentration of celecoxib), 76 ng/mL. Further, the “Serum drug concentration of celecoxib” value in series [3] (setting [4]) was 312 (±214) ng/mL; in series [3] (setting [5]) it was 4 (±6) ng/mL; in series [3] (setting [6]) it was 221 (±227) ng/mL. Also, the “Synovial fluid drug concentration of celecoxib” value in series [3] (setting [4]) is given as 76 (±57) ng/mL; in series [3] (Oral, Washout (7 days)), 1 (±1) ng/mL; in series [3] (setting [5]), 17 (±35) ng/mL; in series [3] (setting [6]), 203 (±165) ng/mL. Also, the “amount of drug the transdermal route requires to achieve the same circulating concentration as oral” value in series [3] (chronic treatment, transdermal versus oral) is reported as “twofold”. The “reduction of circulating drug concentrations by one week washout” value in series [3] (serum, oral or transdermal) was over 95%. In addition, in series [3] (synovial fluid, oral or transdermal), the “reduction of drug concentration by one week washout” value is over 90%.
